Reference: patent publication US7084323B1, “Stress-protected transgenic plants” (The General Hospital Corporation, priority 1996, dated 2006)

Key:
Type in all cases: cell-based
HVA1 promoter [1] = test: HVA1-LUC expression with constitutively active or null PP2C effector in maize leaf protoplasts; details: ABA treatment
Description: To further support the idea that ATCDPK1 and ATCDPK1a are positive regulators in plant stress signal transduction, the effect of a specific and constitutively active Arabidopsis protein phosphatase 2C (PP2C) capable of abolishing ABA responses (Leung et al., Science 264:1448, 1994; Meyer et al., Science 264:1452, 1994; Armstrong et al., Proc. Natl. Acad. Sci. USA 92:9520, 1995) was examined as follows. Maize leaf protoplasts were electroporated with HVA1-LUC alone or with the effectors as indicated. […] The experiments with the constitutively active PP2C or the null PP2C were performed with two concentrations of plasmid DNA (+, 20 μg and ++, 60 μg) (FIG. 4C). LUC and GUS assays were performed with 2% of the cell lysates as described previously by Sheen (EMBO J. 12:3497, 1993; Jefferson, Plant Mol. Biol. Rep. 5:387, 1987; and Luehrsen et al., Meth. Enz. 216:397, 1992). Relative LUC activities from duplicated samples are shown. The experiment was repeated three times with similar results (FIG. 4C).

[2] = system: stress-inducible HVA1 promoter; test: HVA1-SGFP reporter expression in maize leaf protoplasts under stress/ABA treatment
Description: Responses to multiple stress treatments were monitored using green-fluorescent protein (GFP) as a vital reporter (Chiu et al. Curr. Biol. 6:225, 1996), using a single cell maize leaf protoplast system (Sheen, EMBO J 12:3497, 1993). A chimeric gene was generated by fusing the stress-inducible CDPK HVA1 promoter (Straub et al., Plant Mol. Biol. 26:617, 1994) to a synthetic GFP sequence (HVA1-SGFP) (Chiu et al. Curr. Biol. 6:225, 1996). The barley HVA1 promoter was obtained by PCR using barley genomic DNA and two primers: 5′[…]-3′ (SEQ ID NO: 17) and 5′-[…]-3′ (SEQ ID NO: 18). The HVA1 promoter and the SGFP were fused at the ATG NcoI site. The CDPK HVA1 gene has been reported to be activated by multiple stress signals in vegetative tissues (Straub et al., Plant Mol. Biol. 26:617, 1994). […]
Maize leaf protoplasts were electroporated with the plasmid DNA carrying HVA1-SGFP and divided (10^5 cells/ml per sample) for various treatments: constant light (15 μEm^−2S^−1) at 23° C. for sixteen hours (Control), 0° C. for four hours followed by twelve hours at 23° C. […] About 10^5 protoplasts from each treatment were observed using a fluorescence microscope as described by Chiu et al. (Curr. Biol. 6:225, 1996). […] About 50% of the protoplasts, showing green/yellow fluorescence after the induction, were transiently transformed. […]

[3] = system: stress-inducible HVA1 promoter; test: HVA1-SGFP expression in maize leaf protoplasts treated with Ca2+ ionophores; details: 1 mM Ca2+ alone or with 100 nM ionophore in incubation medium
Description: The role of Ca^2+ as a second messenger in multiple stress responses was also studied. The effects of increased intracellular Ca^2+ on HVA1-SGFP expression in maize leaf protoplasts using Ca^2+ ionophore was examined using standard methods as described below (Knight et al., Nature 352:524, 1991; Schroeder and Thuleau, Plant Cell 3:555, 1991; Braam, Proc. Natl. Acad. Sci. U.S.A. 89:3213, 1992; McAinsh et al., Plant Cell 4:1113, 1992; Assmann, Ann. Rev. Cell Biol. 9:345, 1993; Poovaiah and Reddy, Crit. Rev. Plant Sci. 12:185, 1993; Trewavas and Knight, Plant Mol. Biol. 26:1329, 1994; Ward and Schroeder, Plant Cell 6:669, 1994; Bethke et al., in Plant Hormones, Davies, Ed., (Kluwer Academic 1995) pp. 298–317; Bush, Ann. Rev. Plant Physiol. Plant Mol. Biol. 46:95, 1995; Monroy and Dhindsa, Plant Cell 7:32, 1995; and Knight et al., Plant Cell 8:489, 1996).
Maize leaf protoplasts transfected with HVA1-SGFP (HVA) or UBI-SGFP (UBI) were treated with 1 mM Ca^2+, 1 mM Ca^2+/100 nM A23187, and 1 mM Ca^2+/100 nM ionomycin, respectively designated “C,” “A,” and “I” in FIG. 2. UBI-SGFP was constructed by inserting the UBI promoter from pAHC27 (Christensen et al., Plant Mol. Biol. 18:675, 1992) into the SGFP vector (Chiu et al., Curr. Biol. 6:225, 1996). […] About 10^5 protoplasts from each treatment were observed using a fluorescence microscope (Chiu et al., Curr. Biol. 6:225, 1996). […]

HVA1 promoter [4] = test: HVA1-LUC reporter co-expression with constitutive PK constructs in maize leaf protoplasts; details: co-electroporated constitutive (truncated) PK construct, without ABA
Method: For quantitating the effect of various constitutive PKs on stress signaling, another chimeric gene with the HVA1 promoter and the luciferase coding sequence (Leuhrsen et al., Meth. Enz. 216:397, 1992) (HVA1-LUC) was generated. Co-expression experiments were performed by electroporating the reporter (HVA1-LUC) and the effector (35SC4PSK-PK-HA) plasmids together into maize leaf protoplasts as follows.
Maize leaf protoplasts were transfected with HVA1-LUC alone and incubated without (FIG. 3E, “C”) or with 100 μM ABA (FIG. 3E, “A”). HVA1-LUC was also co-electroporated with the PK constructs (1–8) shown in FIG. 3C and FIG. 3D, and incubated without ABA (FIG. 3E, “1–8”). Relative LUC activities from duplicated samples are shown. About 2% of the cell lysates were used for LUC (Luehrsen et al., Meth. Enz. 216:397, 1992) and GUS assays (Sheen, EMBO J. 12:3497, 1993; and Jefferson, Plant Mol. Biol. Rep. 5:387, 1987). The experiment was repeated three times with similar results.

CC1=CC(=O)CC(C)(C)[C@@]1(O)/C=C/C(C)=C\C(=O)O [ABA, abscisic acid]
HVA1-LUC expression (HVA1 promoter [1]): activated | GFP expression from HVA1-SGFP ([2]; 1 μM ABA (data not shown)): visible | expression of GFP from HVA1-SGFP ([2]; 100 μM ABA for sixteen hours, fluorescence microscopy): enhanced

CNc1ccc2oc(C[C@H]3O[C@@]4(CC[C@H]3C)O[C@H]([C@H](C)C(=O)c3ccc[nH]3)[C@H](C)C[C@H]4C)nc2c1C(=O)O [A23187]
expression of HVA1-GFP [3]: significantly increased

C[C@H](CCC(=O)O)C[C@H](C)C[C@H](C)C(=O)/C=C(\O)[C@H](C)C[C@H](C)C/C=C/[C@@H](C)[C@@H](O)[C@@H](C)[C@@H](O)C[C@@H]1CC[C@@](C)([C@H]2CC[C@@](C)([C@@H](C)O)O2)O1 [ionomycin]
expression of HVA1-GFP [3]: significantly increased

B1: ATCDPK1a: truncated constitutively active Arabidopsis CDPK PK domain, SEQ ID NO: 2 (protein, listed as Arabidopsis thaliana)
chain: MANQTQISDKYILGRELGRGEFGITYLCTDRETREALACKSISKRKLRTAVDVEDVRREVTIMSTLPEHPNVVKLKATYEDNETVHLVMELCEGGELFGRIVARGHYTERAAATVARTIAEVVRMCHVNGVMHRDLKPENFLFANKKENSALKAIDFGLSVLFKPGERFTEIVGSPYYMAPEVLKRNYGPEVDVWSAGVILYILLCGVPPFWAETEQGVALAILRGVLDFKRDPWSQISESAKSLVKQMLEPDSTKRLTAQQVLDHPWIQNAKK
LUC expression controlled by the HVA1 promoter (HVA1 promoter [4]): specifically activate
